Earlier results as cited in US20090062268A1, “NOVEL INHIBITORS OF POLY(ADP-RIBOSE)POLYMERASE (PARP)” (LEAD THERAPEUTICS, INC., priority 2007, published 2009).
Like-named read-outs stand apart in the source and are kept apart here.

Experiments:
PARP-1 = PARP-1 (Homo sapiens, UniProt P09874); settings: Farmer et al., Nature 2005
[1] = tested on: BRCA2-deficient cell line V-C8; settings: BRCA2-deficient V-C8 compared with the BRCA2 wild type control
CAPAN-1 cells = CAPAN-1 cells in DMEM with FCS (20% v/v), glutamine and antibiotics

Chain of PARP-1 (P09874 whole entry, species assumed): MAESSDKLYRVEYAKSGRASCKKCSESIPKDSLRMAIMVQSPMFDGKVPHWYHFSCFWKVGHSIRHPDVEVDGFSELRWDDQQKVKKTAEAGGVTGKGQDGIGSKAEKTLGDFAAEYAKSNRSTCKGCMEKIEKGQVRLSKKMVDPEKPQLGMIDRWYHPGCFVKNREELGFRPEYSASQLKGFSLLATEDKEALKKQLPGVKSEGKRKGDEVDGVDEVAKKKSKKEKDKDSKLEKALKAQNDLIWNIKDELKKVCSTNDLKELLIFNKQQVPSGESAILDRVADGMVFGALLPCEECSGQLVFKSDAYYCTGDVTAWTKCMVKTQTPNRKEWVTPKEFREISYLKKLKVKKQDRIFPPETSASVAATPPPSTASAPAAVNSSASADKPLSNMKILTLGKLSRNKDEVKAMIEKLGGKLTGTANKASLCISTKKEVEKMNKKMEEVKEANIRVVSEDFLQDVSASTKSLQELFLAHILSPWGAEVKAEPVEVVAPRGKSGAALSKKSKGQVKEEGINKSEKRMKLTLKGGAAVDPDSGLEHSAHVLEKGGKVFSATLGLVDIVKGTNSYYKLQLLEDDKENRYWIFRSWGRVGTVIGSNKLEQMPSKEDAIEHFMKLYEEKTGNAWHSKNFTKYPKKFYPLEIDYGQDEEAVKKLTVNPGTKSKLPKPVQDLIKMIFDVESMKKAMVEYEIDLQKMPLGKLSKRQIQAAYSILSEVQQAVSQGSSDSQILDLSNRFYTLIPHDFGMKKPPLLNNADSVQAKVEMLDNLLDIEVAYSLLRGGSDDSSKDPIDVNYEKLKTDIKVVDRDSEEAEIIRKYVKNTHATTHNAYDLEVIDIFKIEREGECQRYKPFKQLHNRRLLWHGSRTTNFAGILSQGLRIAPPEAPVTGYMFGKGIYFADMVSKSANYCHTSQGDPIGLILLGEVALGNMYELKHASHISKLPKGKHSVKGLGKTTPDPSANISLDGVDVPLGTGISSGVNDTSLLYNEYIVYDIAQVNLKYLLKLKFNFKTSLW

SMILES | Ki (PARP-1; PARP-1 inhibitor) [nM] | sensitivity in clonogenic survival assay [1] | sensitivity to PARP inhibition in clonogenic survival assay (CAPAN-1 cells) | in vivo efficacy, tumor growth (BRCA2-deficient tumors) | Ki (PARP-1; moderately potent PARP-1 inhibitor) [nM]
CN(C)Cc1ccc(-c2nc3cccc4c3n2CCNC4=O)cc1 [AG14361] | 5 | exhibited sensitivity | – | – | –
O=C1CCC(=O)N1c1cc(Cc2n[nH]c(=O)c3ccccc23)ccc1F [KU0058684] | – | – | showing sensitivity | in vivo efficacy in blocking the growth of BRCA2-deficient tumors | –
Cc1nc2c(O)cccc2c(=O)[nH]1 [NU1025] | – | exhibited sensitivity | – | – | 50
